Drawing on US20260159520A1, “HETEROBIFUNCTIONAL COMPOUNDS AND METHODS OF TREATING DISEASE” (Halda Therapeutics OpCo, Inc., priority 2022, published 2026), this text covers GI50 for four molecules.

What all share (format): cell-based
The test system of assay [1] is T-Rex 293 cell line SC3 cells having increased expression of androgen receptor protein. Briefly: Cellular growth inhibition, T-Rex 293 SC3 cells with doxycycline (increased androgen receptor expression). Conditions: with 10 ng/mL doxycycline (increased androgen receptor), 72 hours, CellTiter-Glo 2.0. The essentials: (§1)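 Growth inhibition is measured in an inducible AR-expressing T-Rex 293 clone, SC3, cultured with or without 10 ng/mL doxycycline in hormone-depleted medium. Test compounds are applied for 72 hours. GI50 values derive from CellTiter-Glo 2.0 signal fitted by four-parameter regression.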
In general terms: Cellular ATP, detected with luciferase, serves as a proxy for viable cell number.

The test system of assay [2] is T-Rex 293 cell line SC cells lacking increased expression of progesterone receptor isoform B protein. Briefly: Cellular growth inhibition, T-Rex 293 SC cells without doxycycline. Conditions: not exposed to doxycycline, 72 hours, CellTiter-Glo 2.0. The procedure: (§2) The following types of cells were prepared for this experiment: (i) a T-Rex 293 cell line having increased expression of progesterone receptor isoform B protein due to exposure to doxycycline and (ii) a T-Rex 293 cell line lacking increased expression of progesterone receptor isoform B protein. Ability of the test compounds to inhibit proliferation of the foregoing cell types was evaluated according to the procedures set forth below.
(§3) The doxycycline-inducible progesterone receptor isoform B protein expressing cell line was established using the following protocol: T-Rex 293 cells were purchased from Invitrogen (Cat #R71007) and transfected using Lipofectamine 2000 with the wild-type progesterone receptor B protein sequence cloned into the pcDNA4/TO vector. Transfected cells were selected using 400 μg/mL Zeocin (Invitrogen Cat #R25001). Following selection, single clones were raised and maintained in Dulbecco's Modified Eagle Medium (DMEM) supplemented with 10% w/w Tetracycline-free fetal bovine serum (FBS) and 250 μg/mL Zeocin. Clones were analyzed for expression of progesterone receptor isoform B protein in the presence and absence of 10 ng/mL doxycycline (Sigma Cat #D9891), and a single doxycycline-inducible clone (hereinafter “SC”) was selected for use in downstream assays.
(§4) The SC cells were seeded on poly-D-lysine coated, black clear-bottom 384-well plates at 2500/well, in 25 μL Phenol Red Free Dulbecco's Modified Eagle Medium (DMEM) supplemented with 10% w/w charcoal-dextran treated fetal bovine serum (FBS) and 1% w/w pen-strep, with or without 10 ng/mL doxycycline. Pen-Strep is a commercially available mixture of penicillin G and streptomycin, which is used in mammalian cell culture media to prevent bacterial contamination. Phenol Red Free Dulbecco's Modified Eagle Medium (DMEM) supplemented with 10% w/w charcoal-dextran treated fetal bovine serum (FBS) and 1% w/w pen-strep, with or without 10 ng/mL doxycycline is herein referred to as Treatment Medium. Following seeding of cells in the plates, the plates were spun at 300×g for 30 seconds, then equilibrated to room temperature for 30 minutes, and then deposited in a humidified tissue culture incubator maintained at 37° C. with 5% CO2.
(§5) At 24 hours after seeding of the cells, dilutions of test compound were prepared in DMSO and dissolved in Treatment Medium, to achieve a final DMSO concentration of 0.5% w/w, thereby providing the Test Compound Solution. A 25 μL aliquot of the Test Compound Solution was added to cells in the well plates. An equal volume of a solution containing DMSO and Treatment Medium was used as a negative control. Following treatment of cells with Test Compound Solution or said equal volume of a solution containing DMSO and Treatment Medium, the plates were spun at 300×g for 30 seconds, and then left in an incubator for 72 hours.
(§6) At the end of the treatment duration, cell viability was quantified with CellTiter-Glo 2.0 reagent (Promega Cat #G9243). For this purpose, plates were equilibrated to room temperature for 30 minutes, and then 25 μL of CellTiter-Glo 2.0 reagent was added to cells in the plate wells. Plates were then agitated on a shaker for two minutes at 500 rpm and subsequently incubated at room temperature for 10 minutes. Following incubation, the plates were spun at 3000×g for 30 seconds, then sealed with an optical adhesive cover, and luminescence readings were measured with an EnVision Plate Reader (Perkin Elmer).
(§7) Data was normalized using zero luminescence for baseline. A four-parameter non-linear regression curve fit was applied to dose-response data in GraphPad Prism data analysis software to determine the half-maximal growth inhibitory concentration (GI50) for each test compound.

Assay [3] concerns T-Rex 293 cell line SC cells having increased expression of progesterone receptor isoform B protein. The assay is described as follows: Cellular growth inhibition, T-Rex 293 SC cells with doxycycline (increased progesterone receptor isoform B expression). Conditions: with 10 ng/mL doxycycline (increased progesterone receptor isoform B), 72 hours, CellTiter-Glo 2.0. The procedure: as §2, §3, §4, §5, §6, §7

In assay [4] the test system is T-Rex 293 cell line SC3 cells lacking increased expression of androgen receptor protein. Briefly: Cellular growth inhibition, T-Rex 293 SC3 cells without doxycycline. Conditions: not exposed to doxycycline, 72 hours, CellTiter-Glo 2.0. The gist of the method:
as §1

Assay [5] has as its system VCaP cells. Briefly: Cellular growth inhibition assay for VCaP cells. Conditions: Homo sapiens, 72 hours, CellTiter-Glo 2.0.
Assay [6] has as its system T47D cells. Briefly: Cellular growth inhibition assay for T47D cells. Conditions: Homo sapiens, 72 hours, CellTiter-Glo 2.0. The essentials: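 Growth inhibition as GI50, fitted with four parameters to CellTiter-Glo luminescence after 72 h of compound exposure (0.5% DMSO). Cells were T47D, grown in insulin-supplemented (0.2 units/mL) DMEM with 10% FBS and treated one day post-seeding.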

A value given as a limit tells only on which side of the number the result lay.

For orientation: GI50 means the concentration giving 50% growth inhibition. A low value points to more potent growth inhibition. For the molecule `CCc1cnn2c(NCc3ccc(OCCOCCOCCN(C)c4ncc(C(=O)N[C@H]5C(C)(C)[C@H](Oc6ccc(C#N)c(Cl)c6)C5(C)C)cn4)nc3)cc(N3CCCC[C@H]3CCO)nc12` [Compound I-2, N-((1r,3r)-3-(3-chloro-4-cyanophenoxy)-2,2,4,4-tetra-methylcyclobutyl)-2-((2-(2-(2-((5-(((3-ethyl-5-((S)-2-(2-hydroxyethyl)piperidin-1-yl)pyrazolo[1,5-a]pyrimidin-7-yl)amino)methyl)pyridin-2-yl)oxy)ethoxy)ethoxy)ethyl)(methyl)amino)pyrimidine-5-carboxamide], the 50% growth inhibitory concentration (GI50) in assay [1] is 100 to 1000 nM; in assay [2], below 500 nM; in assay [3], below 500 nM; in assay [4], 100 to 1000 nM.
In the case of `CCc1cnn2c(NCc3ccc(OCCOCCOCCOCCOCCOCCOCCOC4CCN(c5ncc(C(=O)N[C@H]6C(C)(C)[C@H](Oc7ccc(C#N)c(Cl)c7)C6(C)C)cn5)CC4)nc3)cc(N3CCCC[C@H]3CCO)nc12` [Compound I-10], the GI50 is below 100 nM in assay [5]; below 100 nM in assay [1]; below 500 nM in assay [2]; below 500 nM in assay [3]; 100 to 1000 nM in assay [4].
As for `CC1(C)[C@H](NC(=O)c2cnc(N3CCC(OCCOCCOCCNS(=O)(=O)c4ccc(Nc5ncc(Br)c(Nc6cccc(F)c6C(N)=O)n5)cc4)CC3)nc2)C(C)(C)[C@H]1Oc1ccc(C#N)c(Cl)c1` [Compound I-14], the concentration for 50% growth inhibition (GI50) in assay [1] was above 3500 nM; in assay [2] it was above 3000 nM; in assay [3] it was above 3000 nM; in assay [4] it was above 3500 nM; in assay [6], 500 to 1500 nM.
Consider `CCc1cnn2c(NCc3ccc(OCCCCOC4CCN(c5ncc(C(=O)N[C@H]6C(C)(C)[C@H](Oc7ccc(C#N)c(Cl)c7)C6(C)C)cn5)CC4)nc3)cc(N3CCCC[C@H]3CCO)nc12` [Compound I-27], for which the GI50 was 100 to 1000 nM in assay [1], above 3000 nM in assay [2], below 500 nM in assay [3] and above 3500 nM in assay [4].
